Source: patent US20100210539A1, “USE OF PEPTIDE LL-37 AS A THERAPEUTIC AGENT” (priority 2007, published 2010)

Key:
[1] = system: HCMV strain AD169 in MRC-5 cells; test: HCMV plaque reduction assay; settings: HCMV AD169 in MRC-5 cells; peptide 10 micrograms per ml; 7-10 days
MRC-5 cells = settings: human, 6 days
[2] = system: HIV-1IIIB in CEM-SS cells; test: HIV-1 antiviral assay, CPE reduction (MTS); settings: peptide 10 micrograms per ml, 6 days post-infection
Pseudomonas aeruginosa = settings: 5 micrograms per ml
in vitro [3] = settings: human, CEM-SS cells
[4] = system: Methicillin Resistant Staphylococcus Aureus (MRSA); settings: 5 micrograms per ml
in vitro [5] = settings: human
Streptococcus pneumoniae = settings: 5 micrograms per ml
[6] = Cytotoxicity in MRC-5 cells (CellTiter 96); settings: human, MRC-5 cells (embryonal lung fibroblasts)
HepG2-2.2.15 cells = settings: peptide 10 micrograms per ml, dye uptake assay
CEM-SS cells = settings: peptide 10 micrograms per ml, MTS

SMILES: Nc1nc(O)c2ncn(COC(CO)CO)c2n1 [Ganciclovir]
- % plaque reduction [1]: 100%
- % Cell viability (MRC-5 cells): 100%

SMILES: CC(C)(C)NC(=O)[C@@H]1CN(Cc2cccnc2)CCN1C[C@@H](O)C[C@@H](Cc1ccccc1)C(=O)N[C@H]1c2ccccc2C[C@H]1O [Indinavir]
- % CPE reduction in HIV-1 infected CEM-SS cells [2]: 100%

SMILES: CC[C@H](C)[C@H](NC(=O)[C@H](CCCCN)NC(=O)[C@H](CCC(=O)O)NC(=O)[C@H](CCCCN)NC(=O)[C@H](CO)NC(=O)[C@H](CCCCN)NC(=O)[C@H](CCCNC(=N)N)NC(=O)[C@H](Cc1ccccc1)NC(=O)[C@H](Cc1ccccc1)NC(=O)[C@H](CC(=O)O)NC(=O)CNC(=O)[C@H](CC(C)C)NC(=O)[C@@H](N)CC(C)C)C(=O)NCC(=O)N[C@@H](CCCCN)C(=O)N[C@@H](CCC(=O)O)C(=O)N[C@@H](Cc1ccccc1)C(=O)N[C@@H](CCCCN)C(=O)N[C@@H](CCCNC(=N)N)C(=O)N[C@H](C(=O)N[C@H](C(=O)N[C@@H](CCC(N)=O)C(=O)N[C@@H](CCCNC(=N)N)C(=O)N[C@H](C(=O)N[C@@H](CCCCN)C(=O)N[C@@H](CC(=O)O)C(=O)N[C@@H](Cc1ccccc1)C(=O)N[C@@H](CC(C)C)C(=O)N[C@@H](CCCNC(=N)N)C(=O)N[C@@H](CC(N)=O)C(=O)N[C@@H](CC(C)C)C(=O)N[C@H](C(=O)N1CCC[C@H]1C(=O)N[C@@H](CCCNC(=N)N)C(=O)N[C@H](C(=O)N[C@@H](CCC(=O)O)C(=O)N[C@@H](CO)C(N)=O)[C@@H](C)O)C(C)C)[C@@H](C)CC)C(C)C)[C@@H](C)CC [LL-37]
- % inhibition (Pseudomonas aeruginosa): 0.0%
- viability at 10 micrograms per ml (in vitro [3]): 86.4%
- % inhibition [4]: 0.0%
- viability at 144 h, 10 micrograms per ml (in vitro [5]): 100%
- % inhibition (Streptococcus pneumoniae): 0.0%
- viability at 144 h [6]: 100%

SMILES: Nc1ccn([C@@H]2CS[C@H](CO)O2)c(=O)n1 [3TC, Lamivudine]
- % Cell viability (HepG2-2.2.15 cells): 95.8%

SMILES: Cc1cn([C@H]2C[C@H](N=[N+]=[N-])[C@@H](CO)O2)c(=O)[nH]c1=O [AZT]
- % CPE reduction in HIV-1 infected CEM-SS cells [2]: 99%
- % Cell viability (CEM-SS cells): 97%
